Assay results as given in PubChem BioAssay AID2060890 (Molecular Pharmacology Branch, DTP, NCI, 2025).

System: LG0703-F948-PDC complex spheroid viability
Assay: Anticancer human tumor LG0703-F948-PDC patient-derived lung adenocarcinoma cell line growth inhibition [RAS]
Conditions: for IC50: curve of first compound; for viability, T/C: stronger effect = lower value; active = viability on the fitted dose curve at most 10% of control; inactive = the rest
How it was run: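 Tumour cells grown as complex spheroids with HUVEC endothelial cells and mesenchymal stem cells, treated with RAS pathway inhibitor combinations. Each agent spans half-log steps from near clinical Cmax, or 10 microM where Cmax is unknown.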

[1] = second compound 0.0316 µM, first compound 0.00316 µM
[2] = second compound 0.0316 µM, first compound 0.01 µM
[3] = second compound 0.0316 µM, first compound 0.0316 µM
[4] = second compound 0.0316 µM, first compound 0.1 µM
[5] = second compound 0.0316 µM, first compound 0.316 µM
[6] = second compound 0.0316 µM, first compound 1 µM
[7] = second compound 0.1 µM, first compound 0.00316 µM
[8] = second compound 0.1 µM, first compound 0.01 µM
[9] = second compound 0.1 µM, first compound 0.0316 µM
[10] = second compound 0.1 µM, first compound 0.1 µM
[11] = second compound 0.1 µM, first compound 0.316 µM
[12] = second compound 0.1 µM, first compound 1 µM
[13] = second compound 0.316 µM, first compound 0.00316 µM
[14] = second compound 0.316 µM, first compound 0.01 µM
[15] = second compound 0.316 µM, first compound 0.0316 µM
[16] = second compound 0.316 µM, first compound 0.1 µM
[17] = second compound 0.316 µM, first compound 0.316 µM
[18] = second compound 0.316 µM, first compound 1 µM
[19] = second compound 1 µM, first compound 0.00316 µM
[20] = second compound 1 µM, first compound 0.01 µM
[21] = second compound 1 µM, first compound 0.0316 µM
[22] = second compound 1 µM, first compound 0.1 µM
[23] = second compound 1 µM, first compound 0.316 µM
[24] = second compound 1 µM, first compound 1 µM
[25] = second compound 0.00316 µM, first compound 0.00316 µM
[26] = second compound 0.00316 µM, first compound 0.01 µM
[27] = second compound 0.00316 µM, first compound 0.0316 µM
[28] = second compound 0.00316 µM, first compound 0.1 µM
[29] = second compound 0.00316 µM, first compound 0.316 µM
[30] = second compound 0.00316 µM, first compound 1 µM
[31] = second compound 0.01 µM, first compound 0.00316 µM
[32] = second compound 0.01 µM, first compound 0.01 µM
[33] = second compound 0.01 µM, first compound 0.0316 µM
[34] = second compound 0.01 µM, first compound 0.1 µM
[35] = second compound 0.01 µM, first compound 0.316 µM
[36] = second compound 0.01 µM, first compound 1 µM
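Note: spheroids exposed to agents for 7 days.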
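Throughout, for viability, T/C: 100% = DMSO vehicle wells.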

C[C@@H](NC(=O)c1ncnc(N)c1Cl)c1ncc(C(=O)Nc2cc(C(F)(F)F)c(Cl)cn2)s1 + CCn1c(-c2cccnc2C(C)OC)c2c3cc(ccc31)N1CCOC(CC(NC(=O)C(C(C)C)N(C)C(=O)C3(F)CCN(C(=O)C#CC(C)(C)N(C)C)CC3)C(=O)N3CCCC(N3)C(=O)OCC(C)(C)C2)C1
< 31.6 nM: IC50 (second compound 0.3 µM)
> 10000 nM: IC50 (second compound 0.000949 µM) | IC50 (second compound 0.003 µM) | IC50 (second compound 0.00949 µM) | IC50 (second compound 0.03 µM) | IC50 (second compound 0.0949 µM)
inactive: viability, T/C (second compound 0.000949 µM, first compound 0.0316 µM) 87.6% | viability, T/C (second compound 0.000949 µM, first compound 0.1 µM) 106% | viability, T/C (second compound 0.000949 µM, first compound 0.316 µM) 118% | viability, T/C (second compound 0.000949 µM, first compound 1 µM) 110% | viability, T/C (second compound 0.000949 µM, first compound 3.16 µM) 102% | viability, T/C (second compound 0.000949 µM, first compound 10 µM) 90.1% | viability, T/C (second compound 0.003 µM, first compound 0.0316 µM) 106% | viability, T/C (second compound 0.003 µM, first compound 0.1 µM) 102% | viability, T/C (second compound 0.003 µM, first compound 0.316 µM) 85.5% | viability, T/C (second compound 0.003 µM, first compound 1 µM) 113% | viability, T/C (second compound 0.003 µM, first compound 3.16 µM) 103% | viability, T/C (second compound 0.003 µM, first compound 10 µM) 105% | viability, T/C (second compound 0.00949 µM, first compound 0.0316 µM) 94.1% | viability, T/C (second compound 0.00949 µM, first compound 0.1 µM) 108% | viability, T/C (second compound 0.00949 µM, first compound 0.316 µM) 91% | viability, T/C (second compound 0.00949 µM, first compound 1 µM) 103% | viability, T/C (second compound 0.00949 µM, first compound 3.16 µM) 92.3% | viability, T/C (second compound 0.00949 µM, first compound 10 µM) 87.7% | viability, T/C (second compound 0.03 µM, first compound 0.0316 µM) 99.6% | viability, T/C (second compound 0.03 µM, first compound 0.1 µM) 105% | viability, T/C (second compound 0.03 µM, first compound 0.316 µM) 88.4% | viability, T/C (second compound 0.03 µM, first compound 1 µM) 97% | viability, T/C (second compound 0.03 µM, first compound 3.16 µM) 107% | viability, T/C (second compound 0.03 µM, first compound 10 µM) 82.2% | viability, T/C (second compound 0.0949 µM, first compound 0.0316 µM) 74.4% | viability, T/C (second compound 0.0949 µM, first compound 0.1 µM) 71.1% | viability, T/C (second compound 0.0949 µM, first compound 0.316 µM) 81.7% | viability, T/C (second compound 0.0949 µM, first compound 1 µM) 78.3% | viability, T/C (second compound 0.0949 µM, first compound 3.16 µM) 88.4% | viability, T/C (second compound 0.0949 µM, first compound 10 µM) 65.9% | viability, T/C (second compound 0.3 µM, first compound 0.0316 µM) 43.5% | viability, T/C (second compound 0.3 µM, first compound 0.1 µM) 42.9% | viability, T/C (second compound 0.3 µM, first compound 0.316 µM) 48.6% | viability, T/C (second compound 0.3 µM, first compound 1 µM) 54% | viability, T/C (second compound 0.3 µM, first compound 3.16 µM) 48.1% | viability, T/C (second compound 0.3 µM, first compound 10 µM) 37.5%

O=C(c1ccc(F)c(F)c1Nc1ccc(I)cc1F)N1CC(O)([C@@H]2CCCCN2)C1 + C#Cc1c(F)ccc2cc(O)cc(-c3ncc4c(N5CC6CCC(C5)N6)nc(OCC56CCCN5CC(F)C6)nc4c3F)c12
32.2 nM: IC50 (second compound 0.316 µM)
68.4 nM: IC50 (second compound 0.0316 µM)
< 3.16 nM: IC50 (second compound 10 µM)
active: viability, T/C (second compound 10 µM, first compound 0.316 µM) 6.81% | viability, T/C (second compound 10 µM, first compound 1 µM) 2.29%
62.1 nM: IC50 (second compound 0.1 µM)
inactive: viability, T/C [1] 103% | viability, T/C [2] 75.2% | viability, T/C [3] 60.5% | viability, T/C [4] 45.4% | viability, T/C [5] 35.6% | viability, T/C [6] 24.1% | viability, T/C [7] 91.8% | viability, T/C [8] 70.2% | viability, T/C [9] 64% | viability, T/C [10] 39.4% | viability, T/C [11] 34.2% | viability, T/C [12] 21.9% | viability, T/C [13] 80.5% | viability, T/C [14] 66.1% | viability, T/C [15] 53.1% | viability, T/C [16] 31.6% | viability, T/C [17] 28.2% | viability, T/C [18] 22.3% | viability, T/C [19] 66% | viability, T/C [20] 54.8% | viability, T/C [21] 51.5% | viability, T/C [22] 24.4% | viability, T/C [23] 25.1% | viability, T/C [24] 19.7% | viability, T/C (second compound 3.16 µM, first compound 0.00316 µM) 56.8% | viability, T/C (second compound 3.16 µM, first compound 0.01 µM) 47.9% | viability, T/C (second compound 3.16 µM, first compound 0.0316 µM) 33.8% | viability, T/C (second compound 3.16 µM, first compound 0.1 µM) 21.4% | viability, T/C (second compound 3.16 µM, first compound 0.316 µM) 22.6% | viability, T/C (second compound 3.16 µM, first compound 1 µM) 16.3% | viability, T/C (second compound 10 µM, first compound 0.00316 µM) 43.9% | viability, T/C (second compound 10 µM, first compound 0.01 µM) 38.3% | viability, T/C (second compound 10 µM, first compound 0.0316 µM) 18.1% | viability, T/C (second compound 10 µM, first compound 0.1 µM) 17.3%
32.8 nM: IC50 (second compound 1 µM)
7.71 nM: IC50 (second compound 3.16 µM)

C=CC(=O)Nc1cc(Nc2nccc(-c3cn(C)c4ccccc34)n2)c(OC)cc1N(C)CCN(C)C + C=CC(=O)N1CCN(c2nc(OCC3CCCN3C)nc3c(F)c(-c4nc(N)cc(C)c4C(F)(F)F)c(Cl)cc23)C(C)C1
7.93 nM: IC50 (second compound 0.316 µM)
8.29 nM: IC50 (second compound 0.1 µM)
inactive: viability, T/C [25] 75.2% | viability, T/C [26] 40.8% | viability, T/C [27] 16.2% | viability, T/C [28] 14.6% | viability, T/C [29] 10.9% | viability, T/C [30] 8.91% | viability, T/C [31] 79.8% | viability, T/C [32] 42.7% | viability, T/C [33] 16.9% | viability, T/C [1] 79.7% | viability, T/C [2] 45% | viability, T/C [3] 16.2% | viability, T/C [7] 86.3% | viability, T/C [8] 43% | viability, T/C [9] 14.8% | viability, T/C [13] 79.2% | viability, T/C [14] 42.7% | viability, T/C [15] 17.4% | viability, T/C [19] 79.5% | viability, T/C [20] 44.5% | viability, T/C [21] 15.7%
8.46 nM: IC50 (second compound 0.0316 µM)
active: viability, T/C [34] 9.65% | viability, T/C [35] 8.46% | viability, T/C [36] 7.04% | viability, T/C [4] 10.3% | viability, T/C [5] 10.2% | viability, T/C [6] 6.08% | viability, T/C [10] 10.8% | viability, T/C [11] 9.54% | viability, T/C [12] 6.22% | viability, T/C [16] 9.84% | viability, T/C [17] 9.21% | viability, T/C [18] 6.05% | viability, T/C [22] 10.2% | viability, T/C [23] 9.74% | viability, T/C [24] 5.04%
7.97 nM: IC50 (second compound 0.01 µM)
8.3 nM: IC50 (second compound 1 µM)
7.32 nM: IC50 (second compound 0.00316 µM)

O=C(c1ccc(F)c(F)c1Nc1ccc(I)cc1F)N1CC(O)([C@@H]2CCCCN2)C1 + C=CC(=O)N1CCN(c2nc(OCC3CCCN3C)nc3c(F)c(-c4nc(N)cc(C)c4C(F)(F)F)c(Cl)cc23)C(C)C1
34 nM: IC50 (second compound 0.01 µM)
35.6 nM: IC50 (second compound 0.0316 µM)
46 nM: IC50 (second compound 1 µM)
inactive: viability, T/C [25] 92.1% | viability, T/C [26] 69.6% | viability, T/C [27] 47.3% | viability, T/C [28] 30.2% | viability, T/C [29] 19.5% | viability, T/C [30] 16.7% | viability, T/C [31] 92.6% | viability, T/C [32] 79.5% | viability, T/C [33] 51.3% | viability, T/C [34] 26.8% | viability, T/C [35] 16.8% | viability, T/C [36] 13.2% | viability, T/C [1] 94.2% | viability, T/C [2] 81.2% | viability, T/C [3] 52.3% | viability, T/C [4] 27.7% | viability, T/C [5] 17.6% | viability, T/C [6] 14.2% | viability, T/C [7] 89.7% | viability, T/C [8] 74.1% | viability, T/C [9] 50.6% | viability, T/C [10] 27.9% | viability, T/C [11] 18.9% | viability, T/C [12] 13.8% | viability, T/C [13] 90.8% | viability, T/C [14] 82.5% | viability, T/C [15] 52.8% | viability, T/C [16] 27% | viability, T/C [17] 19.7% | viability, T/C [18] 17.5% | viability, T/C [19] 99.8% | viability, T/C [20] 92.7% | viability, T/C [21] 58.4% | viability, T/C [22] 30.9% | viability, T/C [23] 23.6% | viability, T/C [24] 18%
27.1 nM: IC50 (second compound 0.00316 µM)
36.3 nM: IC50 (second compound 0.316 µM)
31.7 nM: IC50 (second compound 0.1 µM)
